According to US20100266577A1, “Method of Cancer Treatment with Antagonists of FAS Inhibitors” (priority 2007, published 2010):

tested on: BJAB cells; experiment: Fc:FasL-induced apoptosis with CD74-derived peptides; type: cell-based; conditions: after 24 hours, compared to buffer- and unrelated peptide-treated cells
From the text: A membrane proximal region of CD74-derived peptides disrupts CD74-Fas complexes. […] The CH-11 binding site was mapped to the membrane-proximal CRD3-domain of Fas.^10 We thus predicted that the membrane-proximal region of CD74 may be involved in the interaction with Fas. We designed four 20 amino acids long peptides with five amino acid overlaps spanning this region of CD74 (FIG. 16A).
The goal of this example was to design and identify peptides that compete with the Fas-CD74 complex in order to enhance Fas-mediated apoptosis. […] In order to better define competing peptides and peptides with apoptosis activity, we tested shorter peptides. We incubated seven amino acid length peptides (7mer 1, 7mer 2, and 7mer3) with BJAB cells and then stimulated apoptosis using recombinant Fas ligand (Fc:FasL).

| Substance | Fas ligand-induced apoptosis (7mer peptides) |
| --- | --- |
| DKLTVTS [7mer 3] | significantly enhanced levels of Fas ligand-induced apoptosis |
| GRLDKLT [7mer 2] | significantly enhanced levels of Fas ligand-induced apoptosis |
| QQQGRLD [7mer 1] | significantly enhanced levels of Fas ligand-induced apoptosis |
